Assay results taken from patent publication US6348214B1, “Materials and methods for making improved liposome compositions” (The Board of Trustees of the Illinois, priority 1996, dated 2002).
Ends that are not written are not given here.

Experiments:
[1] = test system: second-order arterioles in the cheek pouch of normotensive hamsters; conditions: 0.1 nmol VIP dissolved in saline; Suzuki et al. 1995; cited from earlier work
[2] = test system: neutrophil; test: Neutrophil chemotaxis in two chamber apparatus (response to fmlp); format: cell-based; conditions: FIG. 5
Description: Finally, as another experiment the effect of VIP-PEG-liposomes on neutrophil chemotaxis was examined using a two chamber apparatus routinely employed for in vitro analysis of chemotaxis. Neutrophil migration from the upper chamber into the lower chamber in response to formyl-methionyl-leucyl-phenylalanyl (fmlp) peptide in the lower chamber was initially established at a baseline control.

[3] = test system: hamsters with spontaneous hypertension; test: Mean arterial pressure after intravenous administration, hamsters with spontaneous hypertension; format: in vivo, hamster
Description: The provisional application further disclosed that a bolus intravenous injection of 1.0 nmol VIP-PEG-liposome compound acted to decrease mean arterial pressure (MAP) in hamsters with spontaneous hypertension. The results are reproduced herein as FIGS. 2A and 2B; FIG. 2A showing the actual decrease on arterial pressure and FIG. 2B showing the percent change. Data are mean values ± one standard error of the mean; an asterisk indicates statistically significant values compared to control with p value less than 0.05.
In examining the duration and efficacy of VIP in the two liposome preparations on mean arterial pressure, the following procedure was carried out. Adult mate hamsters with spontaneous hypertension (n=12) were obtained from the Canadian Hybrid Farms (Hall Harbour, Nova Scotia, Canada). Approximately 500 μl each of three test preparations, liposomes prepared by the second method above, VIP in aqueous solution, and liposomes without VIP, were injected administered over the course of 1 minute in the femoral vein. Continuous anesthesia of the animals limited the duration of the experiment to 6 hours.
Adult male golden Syrian hypertensive hamsters were prepared for intravital microscopy, cheek pouch microcirculation observed and measured, and mean arterial pressure determined, each technique as described above. […]

[4] = test system: second-order arterioles in the cheek pouch of hamsters with spontaneous hypertension; test: Arteriolar diameter in hamster cheek pouch microcirculation, hamsters with spontaneous hypertension; format: in vivo
Method: (§1) Adult male hamsters with spontaneous hypertension (n=21) and age- and genetically-matched normotensive controls (n=20) were purchased from the Canadian Hybrid Farns, Halls Harbor, NS, Canada. In preparation, the animals were anesthetized interperitoneally with sodium pentobarbital (6 mg/100 g body weight) and a tracheostomy was performed to facilitate spontaneous breathing. The left femoral vein was cannulated to inject supplemental anesthesia (2 to 4 mg per 100 g body weight per hour) during the experiment. A catheter was inserted into the left femoral artery to record systemic arterial pressure and heart rate. Body temperature was monitored to maintain a constant 37-38° C. throughout the experiment using a heating pad.
(§2) In order to visualize microcirculation of the cheek pouch, previously described methods were employed [Gao, et al., Life Sci. 64: PL274-PL252 (1994); Mayhan and Joyner, Microvasc. Res. 28: 159-179 (1984); Mayban and Rubinstein, Biochem. Biophys. Res. Commun. 184:1372-1377 (1992); Raud, Acta Physiol. Scand. Suppl. 578:1-58 (1989); Rubinstein and Mayban, J. Lab. Clin. Med. 25:313-318 (1995); Rubinstein, et al., Am. J. Physiol. 261 (Heart Circ. Physiol. 30):111913-111918 (1991); and Suzuki, et al., Life Sci. 57:1451-1457 (1995)]. Briefly, the left cheek pouch was spread over a small plastic baseplate, and an incision was made in the outer skin to expose, the cheek pouch membrane. […]
(§3) Change in arteriolar diameter was determined as follows. […] The inner wall diameter of secondorder arterioles in the cheek pouch was measured from the video display of the microscope image using a videomicrometer (VIA-100, Boeckeler Instruments, Tucson, Ariz.). […]
VIP alone or encapsulated in liposomes was suffused for 7 minutes at a concentration of VIP of either 0.05 or 0.1 nmol peptide, and more than 30 minutes elapsed between subsequent applications of the peptide. Changes in arteriolar diameter before, during, and after topical application of VIP were determined as outlined above. […]

[5] = test system: second-order arterioles in the cheek pouch of normotensive hamsters; test: Arteriolar diameter in hamster cheek pouch microcirculation, normotensive hamsters; format: in vivo; conditions: Example 1; 0.05 or 0.1 nmol VIP suffused for 7 minutes
Method: According to another experiment, normotensive hamsters were suffused onto the cheek pouch for 7 minutes with 0.1 nmol VIP-PEG-liposome composition which produced a significant increase in mean arterial diameter in situ. The results of this experiment are shown in FIG. 3 with data and significance indicated for results in FIGS. 2A and 2B above. […] Arterial diameter returned to baseline 9 minutes after suffusion was discontinued.
as §1, §2, §3

| Molecule | increase in arteriolar diameter [1] | neutrophil migration against fmlp in the lower chamber ([2]; test substance added with neutrophils in the upper chamber) | neutrophil migration against test substance in the lower chamber ([2]; test substance in lower chamber, no fmlp) | effect on mean arterial pressure ([3]; Example 3, injected in the femoral vein over 1 minute) | effect on mean arterial pressure ([3]; Example 5, hypertensive hamsters) | effect on arteriolar diameter ([4]; Example 1, 0.05 or 0.1 nmol VIP suffused for 7 minutes) | effect on arteriolar diameter ([4]; Example 5, hypertensive hamsters, suffusion for 7 minutes) | effect on arteriolar diameter [5] | time after suffusion was stopped until return to baseline / persistence of vasodilation [5] [min] | time to maximal response from start of suffusion [5] [min] | vasorelaxation, hypertensive versus normotensive hamsters ([4]; Example 1, endothelium independent vasodilator control in the cheek pouch) |
| --- | --- | --- | --- | --- | --- | --- | --- | --- | --- | --- | --- |
| vasoactive intestinal peptide (HSDAVFTDNYTRLRKQMAVKKYLNSILN; ends and bridges not checked; UniProt P01282 125-152, looked up) [VIP] | approximately 10% | significant migration was observed | negligible | No significant effect on mean arterial pressure | no effect | no significant effects on arteriolar diameter | no effects | significant vasodilation | ≤ 1 | ≤ 4 |  |
| O=[N+]([O-])OCC(CO[N+](=O)[O-])O[N+](=O)[O-] [nitroglycerin] |  |  |  |  |  |  |  |  |  |  | vasorelaxation of similar magnitude in both groups |
